Experimental data taken from patent US20120053053A1, “PYRIMIDINE DERIVATIVES AND THEIR USE AS HERBICIDES” (SYNGENTA CROP PROTECTION, LLC, priority 2009, published 2012).

Tests used:
Assay type in all cases: in vivo
[1] = test system: Solanum nigrum (SOLNI); test: Post-emergence biological efficacy (percentage damage); conditions: Solanum nigrum, 312 h, evaluated after 13 days, 100=total damage, 0=no damage; for pest or weed control at 1000 g/ha: dose 1,000 g/ha
Method: (§1) Seeds of Alopecurus myosuroides (ALOMY), Setaria faberi (SETFA), Echinochloa crus-galli (ECHCG), Solanum nigrum (SOLNI), Amaranthus retoflexus (AMARE) and Ipomea hederaceae (IPOHE) were sown in standard soil in pots. After cultivation for 8 days under controlled conditions in a glasshouse (at 24/16° C., day/night; 14 hours light; 65% humidity), the plants were sprayed with an aqueous spray solution derived from the formulation of the technical active ingredient in acetone/water (50:50) solution containing 0.5% Tween 20 (polyoxyethylene sorbitan monolaurate, CAS RN 9005-64-5) to give a final dose of 250 or 1000 g/ha of test compound. The test plants were then grown on under controlled conditions in a glasshouse (at 24/16° C., day/night; 14 hours light; 65% humidity) and watered twice daily. After 13 days the test was evaluated (100=total damage to plant; 0=no damage to plant).

[2] = test system: Amaranthus retoflexus (AMARE); test: as above; conditions: Amaranthus retroflexus, 312 h, evaluated after 13 days, 100=total damage, 0=no damage; for pest or weed control at 1000 g/ha: dose 1,000 g/ha
Method: as §1

[3] = test system: Echinochloa crus-galli (ECHCG); test: as above; conditions: Echinochloa crus-galli, 312 h, evaluated after 13 days, 100=total damage, 0=no damage; for pest or weed control at 1000 g/ha: dose 1,000 g/ha
Method: as §1

[4] = test system: Alopecurus myosuroides (ALOMY); test: as above; conditions: Alopecurus myosuroides, 312 h, evaluated after 13 days, 100=total damage, 0=no damage; for pest or weed control at 1000 g/ha: dose 1,000 g/ha
Method: as §1

[5] = test system: Setaria faberi (SETFA); test: as above; conditions: Setaria faberi, 312 h, evaluated after 13 days, 100=total damage, 0=no damage; for pest or weed control at 1000 g/ha: dose 1,000 g/ha
Method: as §1

[6] = test system: Ipomea hederaceae (IPOHE); test: as above; conditions: Ipomoea hederacea, 312 h, evaluated after 13 days, 100=total damage, 0=no damage; for pest or weed control at 1000 g/ha: dose 1,000 g/ha
Method: as §1

[7] = test system: Solanum nigrum (SOLNI); test: Pre-emergence biological efficacy (percentage damage); conditions: Solanum nigrum, 312 h, evaluated after 13 days, 100=total damage, 0=no damage; for pest or weed control at 1000 g/ha: dose 1,000 g/ha
Method: (§2) Seeds of Alopecurus myosuroides (ALOMY), Setaria faberi (SETFA), Echinochloa crus-galli (ECHCG), Solanum nigrum (SOLNI), Amaranthus retoflexus (AMARE) and Ipomea hederaceae (IPOHE) were sown in standard soil in pots. After cultivation for one day under controlled conditions in a glasshouse (at 24/16° C., day/night; 14 hours light; 65% humidity), the plants were sprayed with an aqueous spray solution derived from the formulation of the technical active ingredient in acetone/water (50:50) solution containing 0.5% Tween 20 (polyoxyethylene sorbitan monolaurate, CAS RN 9005-64-5) to give a final dose of 250 or 1000 g/ha of test compound. The test plants were then grown under controlled conditions in the glasshouse (at 24/16° C., day/night; 14 hours light; 65% humidity) and watered twice daily. After 13 days the test was evaluated (100=total damage to plant; 0=no damage to plant).

[8] = test system: Amaranthus retoflexus (AMARE); test: as above; conditions: Amaranthus retroflexus, 312 h, evaluated after 13 days, 100=total damage, 0=no damage; for pest or weed control at 1000 g/ha: dose 1,000 g/ha
Method: as §2

[9] = test system: Echinochloa crus-galli (ECHCG); test: as above; conditions: Echinochloa crus-galli, 312 h, evaluated after 13 days, 100=total damage, 0=no damage; for pest or weed control at 1000 g/ha: dose 1,000 g/ha
Method: as §2

[10] = test system: Alopecurus myosuroides (ALOMY); test: as above; conditions: Alopecurus myosuroides, 312 h, evaluated after 13 days, 100=total damage, 0=no damage; for pest or weed control at 1000 g/ha: dose 1,000 g/ha
Method: as §2

[11] = test system: Setaria faberi (SETFA); test: as above; conditions: Setaria faberi, 312 h, evaluated after 13 days, 100=total damage, 0=no damage; for pest or weed control at 1000 g/ha: dose 1,000 g/ha
Method: as §2

[12] = test system: Ipomea hederaceae (IPOHE); test: as above; conditions: Ipomoea hederacea, 312 h, evaluated after 13 days, 100=total damage, 0=no damage; for pest or weed control at 1000 g/ha: dose 1,000 g/ha
Method: as §2

SMILES | pest or weed control at 1000 g/ha [1] | pest or weed control at 1000 g/ha [2] | pest or weed control at 1000 g/ha [3] | pest or weed control at 1000 g/ha [4] | pest or weed control at 1000 g/ha [5] | pest or weed control at 1000 g/ha [6] | pest or weed control at 1000 g/ha [7] | pest or weed control at 1000 g/ha [8] | pest or weed control at 1000 g/ha [9] | pest or weed control at 1000 g/ha [10] | pest or weed control at 1000 g/ha [11] | pest or weed control at 1000 g/ha [12] | other results
COC(=O)c1nc(C2CC2)nc(N)c1C#CC(C)(C)C [Compound 2-77, 4-Amino-2-cyclopropyl-5-(3,3-dimethylbut-1-ynyl)-6-methoxycarbonyl-pyrimidine] |  |  |  |  |  |  |  |  |  |  |  |  | pest or weed control at 250 g/ha ([1]; dose 250 g/ha): 40%; pest or weed control at 250 g/ha ([2]; dose 250 g/ha): 30%; pest or weed control at 250 g/ha ([3]; dose 250 g/ha): 0%; pest or weed control at 250 g/ha ([4]; dose 250 g/ha): 0%; pest or weed control at 250 g/ha ([5]; dose 250 g/ha): 0%; pest or weed control at 250 g/ha ([6]; dose 250 g/ha): 70%; pest or weed control at 250 g/ha ([7]; dose 250 g/ha): 0%; pest or weed control at 250 g/ha ([8]; dose 250 g/ha): 0%; pest or weed control at 250 g/ha ([9]; dose 250 g/ha): 0%; pest or weed control at 250 g/ha ([10]; dose 250 g/ha): 0%; pest or weed control at 250 g/ha ([11]; dose 250 g/ha): 0%; pest or weed control at 250 g/ha ([12]; dose 250 g/ha): 0%
COC(=O)c1nc(C2CC2)nc(N)c1C#C[Si](C)(C)C [Compound 2-78, 4-amino-2-cyclopropyl-6-methoxycarbonyl-5-(trimethylsilylethynyl)-pyrimidine] | 100% | 100% | 60% | 30% | 60% | 100% | 90% | 90% | 30% | 20% | 10% | 100% | 
COC(=O)c1nc(C2CC2)nc(N(C)C)c1C [Compound 2-221, 2-Cyclopropyl-4-dimethylamino-6-methoxycarbonyl-5-methylpyrimidine] | 80% | 100% | 70% | 20% | 60% | 80% | 60% | 60% | 0% | 30% | 0% | 70% | 
C=Cc1c(C(=O)OC)nc(C2CC2)nc1N(C)C [Compound 2-225, 2-Cyclopropyl-4-dimethylamino-5-ethenyl-6-methoxycarbonyl-pyrimidine] | 50% | 40% | 0% | 0% | 0% | 30% | 0% | 40% | 0% | 0% | 0% | 20% | 
COC(=O)COc1nc(C2CC2)nc(N)c1C [Compound 2-362, 4-amino-2-cyclopropyl-6-methoxycarbonylmethoxy-5-methylpyrimidine] | 80% | 80% | 60% | 40% | 70% | 80% | 10% | 40% | 10% | 40% | 40% | 30% | 
C=Cc1c(N)nc(SC)nc1OCC(=O)OC [Compound 2-366, 4-amino-5-ethenyl-6-methoxycarbonylmethoxy-2-methylthio-pyrimidine] | 20% | 0% | 0% | 0% | 0% | 0% | 0% | 0% | 0% | 0% | 0% | 0% | 
Cc1c(Cl)nc(C2CC2)nc1OCC(=O)O [Compound 2-375, (4-chloro-2-cyclopropyl-5-methyl-pyrimidin-6-yloxy)-acetic acid] | 10% | 10% | 0% | 0% | 0% | 20% | 0% | 0% | 0% | 0% | 0% | 20% | 
COC(=O)COc1nc(C2CC2)nc(Cl)c1C [Compound 2-376, 4-chloro-2-cyclopropyl-6-methoxycarbonylmethoxy-5-methylpyrimidine] | 30% | 20% | 0% | 0% | 20% | 50% | 0% | 30% | 0% | 0% | 0% | 0% | 
Cc1c(OCC(=O)OC(C)(C)C)nc(C2CC2)nc1OCC(=O)OC(C)(C)C [Compound 2-389, 4,6-bis(t-butoxy-carbonyl-methoxy)-2-cyclo-propyl-5-methyl-pyrimidine] | 30% | 0% | 0% | 0% | 0% | 20% | 0% | 20% | 0% | 0% | 0% | 0% | 
C=Cc1c(OC)nc(C2CC2)nc1C(=O)OC [Compound 2-398, 2-Cyclopropyl-5-ethenyl-4-methoxy-6-methoxy-carbonyl-pyrimidine] | 80% | 90% | 0% | 0% | 0% | 90% | 90% | 90% | 0% | 0% | 0% | 100% | 
C=Cc1c(N=[N+]=[N-])nc(C2CC2)nc1C(=O)OC [Compound 2-399, 4-azido-2-cyclopropyl-5-ethenyl-6-methoxycarbonyl-pyrimidine] | 20% | 20% | 0% | 0% | 0% | 20% | 0% | 0% | 0% | 0% | 0% | 0% | 
